The values that follow are results of earlier work, collected in patent publication US11452308B2, “Method of selecting a probiotic” (SOCIETE DES PRODUITS NESTLE S.A., priority 2017, dated 2022).

The conditions of data set [1]: in vivo.
For data set [2] the following is noted: compared with hydroxytyrosol.

As to `CC=C1C(O)OC=C(C(=O)OC)C1CC(=O)OCCc1ccc(O)c(O)c1` (centres unmarked) [oleuropein aglycone, 3,4-dihydroxyphenylethanol-elenolic acid], the “clearance from the plasma” value in data set [1] is listed as “slower clearance from the plasma”.
In the case of hydroxytyrosol acetate, the “solubility in the lipophilic phases” value in data set [2] was “more soluble in the lipophilic phases than hydroxytyrosol”.
